These are literature values, as cited in patent US20080213414A1, “Compositions containing phaseolus vulgaris extract and alpinia officinarum extract for the prevention and treatment of obesity and type II diabetes” (priority 2005, published 2008).

Series [1] addresses T1, pancreatic lipase (Homo sapiens, UniProt P16233).
T1 sequence (P16233 17-465): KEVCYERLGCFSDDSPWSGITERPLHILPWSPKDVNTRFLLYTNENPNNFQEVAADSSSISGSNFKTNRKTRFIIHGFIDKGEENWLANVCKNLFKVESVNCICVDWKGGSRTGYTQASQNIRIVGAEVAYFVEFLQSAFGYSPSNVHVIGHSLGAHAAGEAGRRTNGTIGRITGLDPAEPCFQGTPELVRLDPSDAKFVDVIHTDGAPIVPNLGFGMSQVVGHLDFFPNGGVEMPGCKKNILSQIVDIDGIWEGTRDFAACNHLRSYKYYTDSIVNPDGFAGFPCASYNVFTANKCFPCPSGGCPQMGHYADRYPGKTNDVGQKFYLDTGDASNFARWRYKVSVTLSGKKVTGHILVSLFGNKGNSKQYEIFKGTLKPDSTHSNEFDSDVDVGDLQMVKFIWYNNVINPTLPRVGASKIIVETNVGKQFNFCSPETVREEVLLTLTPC

The conditions of series [2]: without gastroprotection.

On to `COc1c(-c2ccccc2)oc2cc(O)cc(O)c2c1=O` [3-methylethergalangin], for which the “IC50, inhibition of pancreatic lipase” value in series [1] is recorded as “around 1 mg/ml”. Further, the “stability to the gastric juices” value in series [2] is listed as “not broken down by the gastric juices”.
